# Patent publication US20260271924A1, “COMPOSITIONS FOR MODULATING PLANT GROWTH AND STRESS TOLERANCE, AND METHODS OF USE THEREOF” (The Regents of the University of California, priority 2023, published 2026)
# “Also recorded” adds a separate entry of the source.
# Key:
# [1] = system: Arabidopsis; experiment: Arabidopsis seedling growth / primary root length on treated ½× MS media; type: in vivo, Arabidopsis thaliana
# Protocol: (§1) Plant Growth. For the Arabidopsis treatments, compounds were added to sterile ½× Murashige and Skoog (MS) plant growth media, and the pH was adjusted to 5.7 using potassium hydroxide. Seeds were sterilized using 20% bleach and sowed on the treated plant growth media. Plants were incubated in a 16 h/8 h day/night cycle growth chamber at 22° C. for 7-14 days prior to phenotyping. For the maize treatments, compounds were added to water, and the pH was adjusted to 5.7 using potassium hydroxide. Maize seeds were sterilized using 20% bleach and grown in large size seed germination pouches (see, e.g., mega-international.com) with the treatment. Plants were incubated in a 16 h/8 h day/night cycle growth chamber at 28° C. night/21° C. day for 5 days prior to phenotyping.
# Stock Solutions. 100 mM stock solutions of the various metabolites and itaconate were produced. Metabolites were dissolved using Milli-Q (MQ) water and the pH was adjusted to 5.7-5.8 using 1M KOH. The Ocyl-itaconate stock solution was dissolved in dimethyl sulfoxide (DMSO). Arabidopsis seeds were sterilized using 20% bleach and allowed to mix for 7 minutes. After mixing, seeds were rinsed with sterilized water 6 times. Sterilized seedlings were then placed on media filled square plates. Micropore tape was used to wrap the plates and aluminum foil was used to cover plates, before stratifying for 2 days in a 4° C. chamber. After stratification, seedlings were placed in 22° C. light chamber at intensity 625 lux for 7 days before scanning. All quantifications of the seedlings were performed on FIJI Image J. Seedlings with interesting phenotypes were then transferred to soil in 22° C. conditions with light intensity 625 lux.
# [2] = system: TCSn-GFP; experiment: Cytokinin signaling reporter line imaging; type: in vivo, Arabidopsis thaliana
# Source text: (§2) Confocal Images. For Arabidopsis, most of the roots were stained by PI (Propidium iodide). Hormone reporter lines (GFP, 488 nm), hydrogen peroxide sensor lines (GFP, 488 nm; CFP, 408 nm) (see, Shi et al., Nat. Commun. 13:5040, 2022), ATP sensor lines (DeCol et al., eLife, 6:e26770, 2017) were observed under a Leica SP8 confocal microscope (CFP, 439 nm; VENUS, 516 nm).
# [3] = system: DR5-GFP; experiment: Auxin reporter line imaging; type: in vivo, Arabidopsis thaliana; conditions: 4-OI treatment; compared to the control
# Source text: as §2
# [4] = system: ATP levels; experiment: Fluorescent ATP reporter line imaging; type: in vivo, Arabidopsis thaliana; conditions: 4-OI; meristem zone
# Source text: as §2
# [5] = system: pCYCB1; 1-CYCB1; 1-GFP; experiment: Cell cycle reporter line imaging; type: in vivo, Arabidopsis thaliana; conditions: 50 μM 4-OI; compared to the control
# Source text: as §2
# [6] = system: maize; experiment: Maize seedling growth under treatment in seed germination pouches; type: in vivo
# Protocol: as §1
# [7] = system: 6×ABRE-R:erGFP; experiment: ABA signaling reporter line imaging; type: in vivo, Arabidopsis thaliana; conditions: 4-OI treatment
# Source text: as §2
# [8] = system: superoxide; experiment: NBT staining of Arabidopsis roots (ROS); type: in vivo, Arabidopsis thaliana; conditions: NBT and H2DCFDA staining; 1 mM itaconate, 50 μM 4-OI
# Protocol: ROS staining. For ROS staining, superoxides were detected using NBT; and hydrogen peroxide was detected using 2′,7′-dichlorodihydrofluorescein diacetate (H2DCFDA).
# NBT staining procedures were carried out as described in Kumar et al., Bio-protcol, 4:e1108, 2014. Briefly, a 0.2% solution of NBT was made in a 50 mM sodium phosphate buffer. This solution was used to soak seedlings for 2 minutes in the dark and was then rinsed using deionized (DI) water. Images were taken on a with a 1× objective with a Nikon SMZ1270 Stereo microscope.
# [9] = system: pPIN1-PIN1-GFP; experiment: Auxin transport reporter line imaging; type: in vivo, Arabidopsis thaliana; conditions: 4-OI treatment
# Source text: as §2
# [10] = system: Arabidopsis; experiment: Arabidopsis root growth under itaconate combined with stress agents or sucrose; type: in vivo, Arabidopsis thaliana; conditions: 50 mM NaCl; 100 mM Mannitol
# Protocol: as §1
# [11] = system: root meristem and mature cells; experiment: Aconitate treatment of roots; type: in vivo; conditions: treatment with aconitate
smiles,measurement,setting,value
"CC(CC(=O)O)C(=O)O (stereo not shown) [2-methyl succinate, reference compound]",impact on Arabidopsis (primary root length),[1]; 0.5 mM 2-methyl succinate,does not impact Arabidopsis
same,impact on Arabidopsis (primary root length),[1]; 2 mM 2-methyl succinate,does not impact Arabidopsis
"C=C(CC(=O)OCCCCCCCC)C(=O)O [4-OI, 4-octyl itaconate]",TCSn-GFP signal in the QC,[2]; 4-OI treatment,increases the signal in the QC
same,TCSn-GFP intensity in the columella,[2]; itaconate or 4-OI treatment,decrease; also recorded: reduces
same,Arabidopsis growth,"[1]; 4-OI, 4 day old seedlings treated for 3 days",inhibits Arabidopsis growth in a dose-dependent manner
same,plant growth,"[1]; Arabidopsis, 50 μM 4-OI",nearly arrested plant growth
same,root gravitropic orientation,"[1]; Arabidopsis, 4-OI (50 μM)",roots lose their gravitropic orientation; also recorded: defective gravitropic phenotype
same,DR5-GFP fluorescent intensity,[3],significantly induced; also recorded: is increased
same,ATP levels,[4],increased ATP levels
same,number of actively dividing cells,[5],significant reduction
same,maize root growth,[6]; 50 μM 4-OI for 5 days,enhanced maize root growth
same,maize shoot growth,[6]; 50 μM 4-OI for 5 days,without affecting shoot growth
same,6×ABARE-R:erGFP intensity in the roots,[7],induces
same,ROS levels in Arabidopsis roots,[8],decrease in ROS levels; also recorded: repress
same,pPIN1-PIN1-GFP fluorescent intensity and area,[9],reduces both the pPIN1-PIN1-GFP fluorescent intensity and area
"C#CCCCCCCOC(=O)CC(=C)C(=O)O [ITalk, itaconate-alkyne, reference compound]",phenotype induced by ITalk treatment,"[1]; Arabidopsis, 1 μM and 10 μM iTalk",closely resembles that of 4-OI
"[Cl-].[Na+] [NaCl, sodium chloride]",root growth under stress agent alone,[10],decrease root growth
O=C(O)/C=C(/CC(=O)O)C(=O)O [aconitate],length of mature cells,[11],increased the length of mature cells
same,meristem cell number,[11],inhibited meristem cell number
C=C(CC(=O)O)C(=O)O [itaconate],decreased growth,"[1]; Arabidopsis, same concentration of itaconate as maize, p<0.0001",25%
same,increased growth,"[6]; maize treated with itaconate, p=0.01",30%
OC[C@@H](O)[C@@H](O)[C@H](O)[C@H](O)CO [mannitol],root growth under stress agent alone,[10],decrease root growth
